According to publication PMC2915928 (Bioorganic & medicinal chemistry, 2009):
Like-named read-outs stand apart in the source and are kept apart here.

Legend:
[1] = human liver microsomes
[2] = target: T1, μ-opioid receptor (Mus musculus, UniProt P42866)
[3] = target: T1, μ-opioid receptor; assay: biochemical; settings: read-out: μ Emax, inhibition of basal [35S]GTPγS binding
[4] = target: T2, nociceptin (NOP) receptor (Homo sapiens, UniProt P41146); assay: Inhibition of basal [35S]GTPγS binding; format: biochemical; settings: read-out: NOP Emax, inhibition of basal [35S]GTPγS binding
T2 sequence (P41146 whole entry): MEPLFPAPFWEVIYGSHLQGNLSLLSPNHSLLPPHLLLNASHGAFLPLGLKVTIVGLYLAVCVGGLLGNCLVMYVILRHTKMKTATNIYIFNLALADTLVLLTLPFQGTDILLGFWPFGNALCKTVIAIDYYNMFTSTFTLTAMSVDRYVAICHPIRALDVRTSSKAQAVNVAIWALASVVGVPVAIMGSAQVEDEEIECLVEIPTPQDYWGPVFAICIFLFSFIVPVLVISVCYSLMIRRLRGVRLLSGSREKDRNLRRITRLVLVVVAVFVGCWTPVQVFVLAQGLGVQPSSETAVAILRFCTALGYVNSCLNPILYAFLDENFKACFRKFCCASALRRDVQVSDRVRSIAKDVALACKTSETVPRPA

[5] = target: T2, nociceptin (NOP) receptor; assay: biochemical; settings: read-out: NOP Emax, stimulation of [35S]GTPγS binding
[6] = target: T1, μ-opioid receptor; assay: biochemical; settings: read-out: μ Emax, stimulation of [35S]GTPγS binding

T1 sequence (P42866 whole entry): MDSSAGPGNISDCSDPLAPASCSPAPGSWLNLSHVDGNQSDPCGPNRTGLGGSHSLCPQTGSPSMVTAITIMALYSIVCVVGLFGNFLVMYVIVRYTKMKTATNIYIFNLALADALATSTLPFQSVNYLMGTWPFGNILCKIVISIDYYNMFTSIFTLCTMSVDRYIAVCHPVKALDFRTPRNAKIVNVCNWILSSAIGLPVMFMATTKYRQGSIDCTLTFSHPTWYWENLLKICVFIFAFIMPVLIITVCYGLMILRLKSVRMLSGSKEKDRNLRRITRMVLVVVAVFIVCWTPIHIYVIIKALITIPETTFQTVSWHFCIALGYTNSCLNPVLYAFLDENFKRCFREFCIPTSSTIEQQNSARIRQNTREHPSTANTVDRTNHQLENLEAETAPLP

Compound | Change of N-oxide formation rate upon going from pH 7.4 to pH 10 [1] | μ Emax, stimulation of [35S]GTPγS binding [2] | Emax [3] | Emax [4] | Emax [5] | Emax [6]
O=C(N[C@@H]1CC[C@@]2(O)[C@H]3Cc4ccc(O)c5c4[C@@]2(CCN3CC2CC2)[C@H]1O5)c1ccc(Br)cc1.O=C(O)C(=O)O [Compound 6, 17-Cyclopropylmethyl-3,14β-dihydroxy-4,5α-epoxy-6β-[(4′-bromo)benzamido] morphinan] | doubled |  |  |  |  | 
O=C(N[C@@H]1CC[C@@]2(O)[C@H]3Cc4ccc(O)c5c4[C@@]2(CCN3CC2CC2)[C@H]1O5)c1ccc(Cl)c(Cl)c1.O=C(O)C(=O)O [Compound 9] |  | 85 ± 7.4% | 0% | 87 ± 6.9% | 0% | 80 to 85%
